Experimental data published in patent publication US20150299143A1, “SUBSTITUTED TRIAZOLE AND IMIDAZOLE COMPOUNDS” (HOFFMANN-LA ROCHE INC., priority 2012, published 2015).

Tests used:
[1] = biological target: T1, β 5i (chymotrypsin-like activity) (Homo sapiens, UniProt P20618+P28062); experiment: Cell-Based Proteasome subunit activity/selectivity assay, β5i, substrate (ANW)2Rh110; conditions: Ramos cells; substrate (ANW)2Rh110 (β5i); highest concentration tested 20 μM; read-out: Ic50:ramos:ac-(anw)2-r110
T1 construct: protease activity associated with the proteasome complex in cultured cells; endogenous in cells; host or cells: Ramos cells
How it was run: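 Cell-based fluorogenic assay measuring chymotrypsin-like β5i proteasome activity using the substrate (ANW)2Rh110. Cultured cells received 0.5 μl of 100× 4-fold serial diluted compounds or DMSO per well, were incubated 30 minutes at 37° C, then equilibrated 15 minutes at room temperature. After shaking one minute @ 700 rpm and 120 min room-temperature incubation, fluorescence was read at 500 nm excitation/519 nm emission on an Envision reader.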

[2] = biological target: T2, β5c (chymotrypsin-like activity) (Homo sapiens, UniProt P20618+P28074); experiment: Cell-Based Proteasome subunit activity/selectivity assay, β5c, substrate (WLA)2Rh110; conditions: Ramos cells; substrate (WLA)2Rh110 (β5c); highest concentration tested 20 μM; read-out: Ic50:ramos:rh110-(wla)2
T2 construct: protease activity associated with the proteasome complex in cultured cells; endogenous in cells; host or cells: Ramos cells
How it was run: (§1)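 Subunit activity in cultured cells read with subunit-selective fluorogenic Rh110 substrates: (LLE)2 for β1c, (PAL)2 for β1i, (KQL)2 for β2c/2i, (WLA)2 for β5c. Cells exposed to 4-fold serially diluted compound (top 20 μM) 30 min at 37 °C, then substrate 120 min at room temperature; fluorescence 500/519 nm.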

[3] = tested on: β 2c/2i (trypsin-like); experiment: Cell-Based Proteasome subunit activity/selectivity assay, β2c/2i, substrate (KQL)2Rh110; conditions: Ramos cells; substrate (KQL)2Rh110 (β2c/2i); highest concentration tested 20 μM
How it was run: as §1

[4] = biological target: T3, β 1i (caspase-like) (Homo sapiens, UniProt P28065+P40306); experiment: Cell-Based Proteasome subunit activity/selectivity assay, β1i, substrate (PAL)2Rh110; conditions: Ramos cells; substrate (PAL)2Rh110 (β1i); highest concentration tested 20 μM; read-out: Ic50:ramos:rh110-(pal)2
T3 construct: protease activity associated with the proteasome complex in cultured cells; endogenous in cells; host or cells: Ramos cells
How it was run: as §1

[5] = biological target: T4, β 1c (caspase-like) (Homo sapiens, UniProt P28072+Q99436); experiment: Cell-Based Proteasome subunit activity/selectivity assay, β1c, substrate (LLE)2Rh110; conditions: Ramos cells; substrate (LLE)2Rh110 (β1c); highest concentration tested 20 μM; read-out: Ic50:ramos:rh110-(lle)2
T4 construct: protease activity associated with the proteasome complex in cultured cells; endogenous in cells; host or cells: Ramos cells
How it was run: as §1

IC50 [1]	IC50 [2]	IC50 [3]	IC50 [4]	IC50 [5]	Structure (SMILES)
1.31 µM	≥ 20 µM	≥ 20 µM	≥ 20 µM	17.1 µM	COc1ccc(C(=O)NCCn2cc(C(=O)NC(C#N)c3ccc(C(C)C)cc3)nn2)c(OC)c1OC (stereo not drawn) [Example 61, 1-[2-(2,3,4-Trimethoxy-benzoylamino)-ethyl]-1H-[1,2,3]triazole-4-carboxylic acid [cyano-(4-isopropyl-phenyl)-methyl]-amide]
0.779 µM	≥ 20 µM	≥ 20 µM	≥ 20 µM	≥ 20 µM	CCc1ccc(C(C#N)NC(=O)c2cn(CCNC(=O)c3ccccc3OC(F)(F)F)nn2)cc1 (stereo not drawn) [Example 24, 1-[2-(2-Trifluoromethoxy-benzoylamino)-ethyl]-1H-[1,2,3]triazole-4-carboxylic acid [cyano-(4-ethyl-phenyl)-methyl]-amide]
1.8 µM	≥ 20 µM	≥ 20 µM	≥ 20 µM	≥ 20 µM	CCc1ccc(C(C#N)NC(=O)c2cn(CCNC(=O)c3ccccc3COC)nn2)cc1 (stereo not drawn) [Example 33, 1-[2-(2-Methoxymethyl-benzoylamino)-ethyl]-1H-[1,2,3]triazole-4-carboxylic acid [cyano-(4-ethyl-phenyl)-methyl]-amide]
1.26 µM	≥ 20 µM	≥ 20 µM	≥ 20 µM	≥ 20 µM	CCc1ccc(C(C#N)NC(=O)c2cn(CCNC(=O)C3Cc4ccccc4C3)nn2)cc1 (stereo not drawn) [Example 12, 1-{2-[(Indane-2-carbonyl)-amino]-ethyl}-1H-[1,2,3]triazole-4-carboxylic acid [cyano-(4-ethyl-phenyl)-methyl]-amide]
2.69 µM	≥ 20 µM	≥ 20 µM	≥ 20 µM	≥ 20 µM	COc1cccc(C(C#N)NC(=O)c2cn(CCNC(=O)c3ccc(OC)c(OC)c3OC)nn2)c1 (stereo not drawn) [Example 52, 1-[2-(2,3,4-Trimethoxy-benzoylamino)-ethyl]-1H-[1,2,3]triazole-4-carboxylic acid [cyano-(3-methoxy-phenyl)-methyl]-amide]
5.94 µM	16.1 µM	≥ 20 µM	≥ 20 µM	≥ 20 µM	CCc1ccc(C(C#N)NC(=O)c2cn(CCN3Cc4ccccc4C3=O)nn2)cc1 (stereo not drawn) [Example 46, 1-[2-(1-Oxo-1,3-dihydro-isoindol-2-yl)-ethyl]-1H-[1,2,3]triazole-4-carboxylic acid [cyano-(4-ethyl-phenyl)-methyl]-amide]
9.95 µM	≥ 20 µM	≥ 20 µM	≥ 20 µM	≥ 20 µM	CCc1ccc(C(C#N)NC(=O)c2cn(CCNC(=O)CC3(O)Cc4ccccc4C3)nn2)cc1 (stereo not drawn) [Example 22, 1-{2-[2-(2-Hydroxy-indan-2-yl)-acetylamino]-ethyl}-1H-[1,2,3]triazole-4-carboxylic acid [cyano-(4-ethyl-phenyl)-methyl]-amide]
5.67 µM	≥ 20 µM	≥ 20 µM	≥ 20 µM	≥ 20 µM	COc1ccc(C(=O)NCCn2cc(C(=O)NC(C#N)c3ccccc3Br)nn2)c(OC)c1OC (stereo not drawn) [Example 59, 1-[2-(2,3,4-Trimethoxy-benzoylamino)-ethyl]-1H-[1,2,3]triazole-4-carboxylic acid [(2-bromo-phenyl)-cyano-methyl]-amide]
1.5 µM	7.76 µM	≥ 20 µM	≥ 20 µM	19.9 µM	CCc1ccc(C(C#N)NC(=O)c2cn(CCNC(=O)c3cccc(-c4ccccc4)n3)nn2)cc1 (stereo not drawn) [Example 15, 6-Phenyl-pyridine-2-carboxylic acid [2-(4-{[cyano-(4-ethyl-phenyl)-methyl]-carbamoyl}-[1,2,3]triazol-1-yl)-ethyl]-amide]
0.106 µM	9.98 µM	≥ 20 µM	≥ 20 µM	≥ 20 µM	CCc1ccc(C(C#N)NC(=O)c2cn(CCNC(=O)c3ccc(OC(F)(F)F)cc3OC)nn2)cc1 (stereo not drawn) [Example 11, 1-[2-(2-Methoxy-4-trifluoromethoxy-benzoylamino)-ethyl]-1H-[1,2,3]triazole-4-carboxylic acid [cyano-(4-ethyl-phenyl)-methyl]-amide]
1.43 µM	6.21 µM	≥ 20 µM	≥ 20 µM	≥ 20 µM	CCc1ccc(C(C#N)NC(=O)c2cn(CCNC(=O)c3ccc(Oc4ccc(Cl)cc4)cn3)nn2)cc1 (stereo not drawn) [Example 43, 5-(4-Chloro-phenoxy)-pyridine-2-carboxylic acid [2-(4-{[cyano-(4-ethyl-phenyl)-methyl]-carbamoyl}-[1,2,3]triazol-1-yl)-ethyl]-amide]
0.886 µM	≥ 20 µM	≥ 20 µM	≥ 20 µM	≥ 20 µM	COc1ccc(C(=O)NCCn2cc(C(=O)NC(C#N)c3ccc(OC(F)(F)F)cc3)nn2)c(OC)c1OC (stereo not drawn) [Example 10, 1-[2-(2,3,4-Trimethoxy-benzoylamino)-ethyl]-1H-[1,2,3]triazole-4-carboxylic acid [cyano-(4-trifluoromethoxy-phenyl)-methyl]-amide]
4.11 µM	≥ 20 µM	≥ 20 µM	≥ 20 µM	≥ 20 µM	COc1ccc(C(=O)NCCn2cc(C(=O)NCc3ccc(C)c(C)c3)nn2)c(OC)c1OC [Example 4, 1-[2-(2,3,4-Trimethoxy-benzoylamino)-ethyl]-1H-[1,2,3]triazole-4-carboxylic acid 3,4-dimethyl-benzylamide]
0.282 µM	≥ 20 µM	≥ 20 µM	≥ 20 µM	≥ 20 µM	CCc1ccc(C(C#N)NC(=O)c2cn(CCNC(=O)c3ccc(S(C)(=O)=O)cc3Cl)nn2)cc1 (stereo not drawn) [Example 41, 1-[2-(2-Chloro-4-methanesulfonyl-benzoylamino)-ethyl]-1H-[1,2,3]triazole-4-carboxylic acid [cyano-(4-ethyl-phenyl)-methyl]-amide]
3.05 µM	≥ 20 µM	≥ 20 µM	≥ 20 µM	≥ 20 µM	CCc1ccc(C(C#N)NC(=O)c2cn(CCNC(=O)c3cccnc3OC)nn2)cc1 (stereo not drawn) [Example 29, N-[2-(4-{[Cyano-(4-ethyl-phenyl)-methyl]-carbamoyl}-[1,2,3]triazol-1-yl)-ethyl]-2-methoxy-nicotinamide]
0.176 µM	14.3 µM	≥ 20 µM	≥ 20 µM	≥ 20 µM	O=C(CCNC(=O)c1cn(CCNC(=O)c2ccc(C(F)(F)F)cc2F)nn1)c1ccccc1 [Example 78]
0.054 µM	≥ 20 µM	≥ 20 µM	≥ 20 µM	≥ 20 µM	CCc1ccc(C(C#N)NC(=O)c2nc(CCNC(=O)c3ccc(OC)c(OC)c3OC)n[nH]2)cc1 (stereo not drawn) [Example 89, 5-[2-(2,3,4-Trimethoxy-benzoylamino)-ethyl]-2H-[1,2,4]triazole-3-carboxylic acid [cyano-(4-ethyl-phenyl)-methyl]-amide]
0.996 µM	≥ 20 µM	≥ 20 µM	≥ 20 µM	18.3 µM	CCc1ccc(C(C#N)NC(=O)c2cn(CCNC(=O)c3ccc(C(F)(F)F)cc3OC)cn2)cc1 (stereo not drawn) [Example 92, 1-[2-(2-Methoxy-4-trifluoromethyl-benzoylamino)-ethyl]-1H-imidazole-4-carboxylic acid [cyano-(4-ethyl-phenyl)-methyl]-amide]
0.205 µM	≥ 20 µM	≥ 20 µM	≥ 20 µM	≥ 20 µM	CCOC(=O)[C@H](CCc1ccccc1)NC(=O)c1cn(CCNC(=O)c2ccc(C(F)(F)F)cc2F)nn1 [Example 81, (S)-2-({1-[2-(2-Fluoro-4-trifluoromethyl-benzoylamino)-ethyl]-1H-[1,2,3]triazole-4-carbonyl}-amino)-4-phenyl-butyric acid ethyl ester]
0.08 µM	≥ 20 µM	≥ 20 µM	≥ 20 µM	≥ 20 µM	CCc1ccc(C(C#N)NC(=O)c2cn(CCNC(=O)c3ccc(OC)c(OC)c3OC)nn2)cc1 (stereo not drawn) [Example 1, 1-[2-(2,3,4-Trimethoxy-benzoylamino)-ethyl]-1H-[1,2,3]triazole-4-carboxylic acid [cyano-(4-ethyl-phenyl)-methyl]-amide]
2.06 µM	≥ 20 µM	≥ 20 µM	≥ 20 µM	≥ 20 µM	CCc1ccc(C(C#N)NC(=O)c2cn(CCNC(=O)c3ccc(F)cc3OC)nn2)cc1 (stereo not drawn) [Example 36, 1-[2-(4-Fluoro-2-methoxy-benzoylamino)-ethyl]-1H-[1,2,3]triazole-4-carboxylic acid [cyano-(4-ethyl-phenyl)-methyl]-amide]
